Laboratory results reported in patent US6300501A, “Histidine-(N-benzyl glycinamide) inhibitors of protein farnesyl transferase” (Warner-Lambert Company, priority 1998, dated 2001).
Like-named read-outs stand apart in the source and are kept apart here.

What was measured:
[1] = molecular target: T1, SF9 affinity purified rat farnesyl protein transferase (Rattus norvegicus, UniProt Q02293+Q04631); assay: PFT inhibitory activity (radiolabeled farnesyl pyrophosphate, streptavidin bead assay); format: biochemical
T1 construct: made in house; host or cells: Sf9 insect cells (baculovirus system inferred from b7)
Description: The protein:farnesyl transferase (PFT) or farnesyl protein transferase (FPT) inhibitory activity of compounds of the present invention were assayed in HEPES buffer (pH 7.4) containing 5 mM potassium phosphate and 20 μM ZnCl2. The solution also contained 5 mM DTT (dithiothreitol), 5 mM MgCl2, and 0.1% PEG 8000. Assays were performed in 96 well plates (Wallec) and employed solutions composed of varying concentrations of a compound of the present invention in 100% DMSO (dimethylsulfoxide). Upon addition of both substrates, radiolabeled farnesyl pyrophosphate ([1^3 H], specific activity 15-30 Ci/mmol, final concentration 134 nM) and (biotinyl)-Ahe-Thr-Lys-Cys-Val-Ile-Met ([3aS[3a alpha, 4 beta, 6a alpha]-hexahydro-2-oxo-1H-thieno[3,4-d]imidazole-5-pentanoic acid]-[7-aminoheptanoic acid]-Thr-Lys-Cys-Val-Ile-Met) (Ahe is 7-aminoheptanoic acid, Thr is threonine, Lys is lysine, Cys is cysteine, Val is valine, Ile is isoleucine and Met is methionine) (final concentration 0.2 μM), the enzyme reaction was started by addition of SF9 affinity purified rat farnesyl protein transferase. After incubation at 30° C. for 30 minutes, the reaction was terminated by diluting the reaction 2.5-fold with a stop buffer containing 1.5 M magnesium acetate, 0.2 M H3 PO4, 0.5% BSA (bovine serum albumin), and strepavidin beads (Amersham) at a concentration of 1.3 mg/mL. After allowing the plate to settle for 30 minutes at room temperature, radioactivity was quantitated on a microBeta counter (Model 1450, Wallec). The assay was also carried out without 5 mM potassium phosphate.

[2] = tested on: ras farnesylation in ras-transformed cells; assay: Gel shift assay; format: cell-based; settings: ras-transformed cells, 18-hour incubation; read-out: Gel Shift (μM) MED (minimal effective dose to observe inhibition of ras farnesylation)
Description: Twenty-four hours after planting 2×10^6 ras-transformed cells per treatment condition, the farnesylation inhibitor is added at varying concentrations. Following an 18-hour incubation period, cells are lysed in phosphate-buffered saline containing 1% Triton X-100, 0.5% sodium deoxycholate, and 0.1% SDS (sodium dodecyl sulfate), pH 7.4 in the presence of several protease inhibitors (PMSF (phenylmethylsulfonylfluoride), antipain, leupeptin, pepstatin A, and aprotinin all at 1 μg/mL). Ras protein is immunoprecipitated from the supernatants by the addition of 3 μg v-H-ras Ab-2 (Y13-259 antibody from Oncogene Science). After overnight immunoprecipitation, 30 μL of a 50% protein G-Sepharose slurry (Pharmacia) is added followed by 45-minute incubation. Pellets are resuspended in 2× tris-glycine loading buffer (Novex) containing 5% β-mercaptoethanol and then denatured by 5 minutes boiling prior to electrophoresis on 14% Tris-glycine SDS gels. Using Western transfer techniques, proteins are transferred to nitrocellulose membranes followed by blocking in blocking buffer. Upon overnight incubation with primary antibody (pan-ras Ab-2 from Oncogene Science), an antimouse HRP (horse radish peroxidase) conjugate secondary antibody (Amersham) is employed for detection of the ras protein. Blots are developed using ECL(enhanced chemiluminescence) techniques (Amersham).

[3] = tested on: H61 cells: NIH transformed 3T3 H-ras cells; assay: Clonogenic assay (6 well plates, soft agar); format: cell-based; settings: colonies counted after Day 13, read-out: Clonogenic Assay IC50
Description: Clonoaenic Assay (6 well lates)
Sometime previous to setting up an actual test:
1. Make up 1.5% Bacto Agar in Milli-Q water and autoclave.
2. Make up 500 mL 2× DMEM-HG without phenol red by combining the following:
1 bottle DMEM base powder (Sigma D-5030)
Adjust pH to 7.1 with HCL; filter sterilize.
1. Set up makeshift water bath (beaker of water with thermometer, on hot plate) in the hood. Keep water temperature between 37° C. to 43° C.
2. […] 1.5% Bacto Agar for approximately 2 minutes on high, or until completely melted. Then let it cool somewhat before using it. (You can keep it from resolidifying by setting the bottle on the hot plate.) […]
3. Bottom Layer (0.6% agar) Top Layer (0.3% agar)
20% calf serum 20% calf serum
40% Bacto Agar (1.5%) 20% Bacto Agar (1.5%)
Depending on the volume of each layer needed, use either 50 mL conical tubes or 200 mL turnip tubes which can be floated in the "water bath".
4. Add 1 mL of bottom layer agar/medium to each well: deliver 1 mL warm agar/medium to a well; then using the tip of the pipet, spread the agar/medium around to completely cover the bottom. Repeat with next well.
5. Allow the plates to set at room temperature for about 5 minutes until the bottom layer solidifies.
6. Label sterile Falcon 2054 (12×75 mm) tubes and add appropriate volume of drug solutions into them.
7. Aliquot 4 AL of DMSO or drug solution per 1 mL of agar/medium to appropriate tubes; then add the agar/medium/cells to each tube. Always add 1 mL more than will actually be needed. Mix up and down in the pipet (gently); then deliver 1 mL to the center of each well. The upper layer is less viscous, so it will generally spread out over the bottom layer unaided. If necessary, rotate the plane of the plate gently to spread the top layer evenly over the bottom layer.
8. Let plates set for 5 or 10 minutes at room temperature to solidify, then put into 5% CO2, 37° C. incubator.
9. On Day 13, add 0.5 mL of INT (tetrazolium 1 mg/mL in Milli-Q H2 O, filter sterilized) and return plates to incubator.

[4] = HEPES buffer pH 7.4, without 5 mM potassium phosphate, read-out: IC50 (μM) Hepes
[5] = HEPES buffer pH 7.4 containing 5 mM potassium phosphate, read-out: IC50 (μM) 5 mM K3 PO4 -2

T1 sequence (Q02293 whole entry, one chain of several): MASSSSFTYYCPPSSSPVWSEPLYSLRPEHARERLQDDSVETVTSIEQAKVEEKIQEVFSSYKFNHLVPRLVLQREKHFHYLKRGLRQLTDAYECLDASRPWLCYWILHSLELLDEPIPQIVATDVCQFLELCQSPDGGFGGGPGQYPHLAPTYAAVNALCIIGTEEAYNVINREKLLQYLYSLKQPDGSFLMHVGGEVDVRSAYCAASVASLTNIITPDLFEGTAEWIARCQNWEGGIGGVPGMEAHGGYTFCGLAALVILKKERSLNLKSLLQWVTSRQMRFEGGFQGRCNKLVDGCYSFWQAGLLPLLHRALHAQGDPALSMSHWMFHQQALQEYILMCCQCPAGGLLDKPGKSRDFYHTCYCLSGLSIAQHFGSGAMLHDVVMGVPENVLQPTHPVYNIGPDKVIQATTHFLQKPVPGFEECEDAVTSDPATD

IC50 [1, 4] [µM] | IC50 [1, 5] [µM] | Structure (SMILES) | minimal effective concentration [2] [µM] | IC50 ([3]; 312 h) [nM] | IC50 [3] [nM]
2.8 | 0.061 | CC(CNC(=O)CN(Cc1ccc(F)cc1)C(=O)[C@H](Cc1c[nH]cn1)NC(=O)OCc1ccccc1)c1ccccc1 (stereo partly drawn) [Example 18, (S)-[1-{(4-Fluoro-benzyl)-[(2-phenyl-propylcarbamoyl)-methyl]-carbamoyl}-2-(1H-imidazole-4-yl)-ethyl]-carbamic Acid Benzyl Ester] | 0.2 | > 1000 | 
1.26 | 0.015 | Cc1ccc(CN(CC(=O)NCC(C)c2ccccc2)C(=O)[C@H](Cc2c[nH]cn2)NC(=O)OCc2ccccc2)cc1 (stereo partly drawn) [Example 19, (S)-(2-(1H-Imidazole-4-yl)-1-{(4-methyl-benzyl)-[(2-phenyl-propylcarbamoyl)-methyl]-carbamoyl}-ethyl)-carbamic Acid Benzyl Ester] | 0.05 | 660 | 
1.5 | 0.017 | COc1ccc(CN(CC(=O)NCC(C)c2ccccc2)C(=O)[C@H](Cc2c[nH]cn2)NC(=O)OCc2ccccc2)cc1 (stereo partly drawn) [Example 20, (S)-(2-(1H-Imidazole-4-yl)-1-{(4-methoxy-benzyl)-[(2-phenyl-propylcarbamoyl)-methyl]-carbamoyl}-ethyl)-carbamic Acid Benzyl Ester] | 0.05 | 460 | 
1.6 | 0.022 | CC(CNC(=O)CN(Cc1ccccc1)C(=O)[C@H](Cc1c[nH]cn1)NC(=O)OCc1ccccc1)c1ccccc1 (stereo partly drawn) [Example 23, (S)-[1-{Benzyl-[(2-phenyl-propylcarbamoyl)-methyl]-carbamoyl}-2-(1H-imidazole-4-yl)-ethyl]-carbamic Acid Benzyl Ester] | 0.2 | > 1000 | 
2.6 | 0.043 | CC(CNC(=O)CN(Cc1ccccc1Cl)C(=O)[C@H](Cc1c[nH]cn1)NC(=O)OCc1ccccc1)c1ccccc1 (stereo partly drawn) [Example 28, (S)-[1-{(2-Chloro-benzyl)-[(2-phenyl-propylcarbamoyl)-methyl]-carbamoyl}-2-(1H-imidazole-4-yl)-ethyl]-carbamic Acid Benzyl Ester] | 0.2 | 600 | 
0.78 | 0.016 | CC(CNC(=O)CN(Cc1cccc(Cl)c1)C(=O)[C@H](Cc1c[nH]cn1)NC(=O)OCc1ccccc1)c1ccccc1 (stereo partly drawn) [Example 30, (S)-[1-{(3-Chloro-benzyl)-[(2-phenyl-propylcarbamoyl)-methyl]-carbamoyl}-2-(1H-imidazole-4-yl)-ethyl]-carbamic Acid Benzyl Ester] | 0.1 | > 1000 | 
0.5 | 0.009 | COc1ccccc1CN(CC(=O)NCC(C)c1ccccc1)C(=O)[C@H](Cc1c[nH]cn1)NC(=O)OCc1ccccc1 (stereo partly drawn) [Example 33, (S)-(2-(1H-Imidazole-4-yl)-1-{(2-methoxy-benzyl)-[(2-phenyl-propylcarbamoyl)-methyl]-carbamoyl}-ethyl)-carbamic Acid Benzyl Ester] | 0.05 | 360 | 

Further lines, the compound ahead of its results:

Structure (SMILES) | IC50 [1, 4] [µM] | IC50 [1, 5] [µM] | minimal effective concentration [2] [µM] | IC50 ([3]; 312 h) [nM] | IC50 [3] [nM]
CC(CNC(=O)CN(Cc1ccc(OCc2ccccc2)cc1)C(=O)[C@H](Cc1cnc[nH]1)NC(=O)OCc1ccccc1)c1ccccc1N (some centres unmarked) [Example 21] | 0.16 | 0.008 | 0.05 |  | 300
CC(C)(CNC(=O)CN(Cc1ccc(F)cc1)C(=O)[C@H](Cc1c[nH]cn1)NC(=O)OCc1ccccc1)c1ccccc1 [Example 22, (S)-[1-{(4-Fluoro-benzyl)-[(2-methyl-2-phenyl-propylcarbamoyl)-methyl]-carbamoyl}-2-(1H-imidazole-4-yl)-ethyl]-carbamic Acid Benzyl Ester] | 1.2 | 0.016 | 0.2 | > 1000 | 
O=C(CN(Cc1ccc(OCc2ccccc2)cc1)C(=O)[C@H](Cc1c[nH]cn1)NC(=O)OCc1ccccc1)NCC(c1ccccc1)c1ccccc1Cl (stereo partly drawn) [Example 24, (S)-[1-((4-Benzyloxy-benzyl)-{[2-(2-chloro-phenyl)-2-phenyl-ethylcarbamoyl]-methyl}-carbamoyl)-2-(1H-imidazole-4-yl)-ethyl]-carbamic Acid Benzyl Ester] | 0.2 | 0.014 | 0.2 | 820 | 
CCC(CC)(CNC(=O)CN(Cc1ccc(OCc2ccccc2)cc1)C(=O)[C@H](Cc1cnc[nH]1)NC(=O)OCc1ccccc1)c1ccccc1 [Example 25, (S)-[1-{(4-Benzyloxy-benzyl)-[(2-ethyl-2-phenyl-butylcarbamoyl)-methyl]-carbamoyl}-2-(3H-imidazole-4-yl)-ethyl]-carbamic Acid Benzyl Ester] | 0.93 | 0.032 | 0.2 | 890 | 
CCC(CNC(=O)CN(Cc1ccc(OCc2ccccc2)cc1)C(=O)[C@H](Cc1c[nH]cn1)NC(=O)NCc1ccccc1)c1ccccc1 (stereo partly drawn) [Example 27, (S)-N-(4-Benzyloxy-benzyl)-2-(3-benzyl-ureido)-3-(1H-imidazole-4-yl)-N-[(2-phenyl-butylcarbamoyl)-methyl]-propionamide] | 0.12 | 0.014 | 0.2 | > 1000 | 
CC(C)(CNC(=O)CN(Cc1ccc(Cl)cc1)C(=O)[C@H](Cc1c[nH]cn1)NC(=O)OCc1ccccc1)c1ccccc1 [Example 31, (S)-[1-{(4-Chloro-benzyl)-[(2-methyl-2-phenyl-propylcarbamoyl)-methyl]-carbamoyl}-2-(1H-imidazole-4-yl)-ethyl]-carbamic Acid Benzyl Ester] | 0.52 | 0.014 | 0.1 | > 1000 | 
CC(CNC(=O)CN(Cc1ccc(OCc2ccccc2)cc1)C(=O)[C@H](Cc1c[nH]cn1)NC(=O)OCc1ccccc1)c1ccccc1Cl (stereo partly drawn) [Example 32, (S)-[1-((4-Benzyloxy-benzyl)-{[2-(2-chloro-phenyl)-propylcarbamoyl]-methyl}-carbamoyl)-2-(1H-imidazole-4-yl)-ethyl]-carbamic Acid Benzyl Ester] | 0.32 | 0.007 | 0.05 | 360 | 
